Results from US20080255244A1, “CaM Kinase II Inhibitor Improves Retinoic Acid Therapy and Inhibits the Proliferation of Myeloid Leukemia Cells” (Fred Hutchinson Cancer Research Center, priority 2007, published 2008).

Columns and labels:
Assay type in all cases: cell-based, human
C/EBPε RARE = assay: ChIP at the C/EBPε promoter RARE in HL60 cells; conditions: ATRA 1 uM
Experimental: FIG. 6. Retinoic acid induces changes in the association of CaMKIIγ with the C/EBPε promoter RARE. […] (B) The human C/EBPε 5′ region indicating the location of the ChIP PCR primers. (C) ChIP assays. HL60 cell chromatin from cells treated with ATRA (1 uM) for the indicated time was immunoprecipitated with the indicated antibodies, the DNA isolated and subjected to PCR utilizing the indicated C/EBPε promoter primer pairs.
ChIP. HL60 cells incubated for various periods of time after ATRA (1 μM) treatment were harvested and crosslinked using 1% formaldehyde for 15 minutes at 37° and incubated another 15 minutes at room temperature with 125 mM glycine. Cells then were rinsed and washed three times with cold PBS. The cell pellets were resuspended in 0.2-2 ml of SDS lysis buffer (1% SDS, 10 mM EDTA, […] Tris-HCL, pH 8.1) with protease inhibitors(1 μg/ml leupeptin, […] aprotinin, 1 mM PMSF, 1 μg/ml pepstatin A, 10 μM antipain, 10 μM bestatin, 1 mM NaF, and 1× phosphatase inhibitor cocktail I/II) and sonicated three times at 20 s each to reduce DNA length to 200-800 bp. Supernatants were collected by centrifugation for 10 minutes at 13,200 rpm at 4° and diluted in 10 fold dilution buffer (0.01% SDS, 1.1% Triton X-100, 1.2 mm EDTA, 16.7 mM Tris-HCl, pH 8.1, 167 mM NaCl) with the above protease inhibitors. […]

THP1 cells = assay: THP1 proliferation in liquid suspension culture
Experimental: FIG. 11. […] (A) K562 cells were seeded in liquid suspension culture at 5×10^4 cells/ml in the presence or absence of the indicated concentration of compounds, and cell counts were obtained at the indicated time. (B) The indicated myeloid leukemia cell lines were seeded in liquid suspension culture at 5×10^4 cells/ml in the presence or absence of KN93, and cell counts obtained at the indicated time. (C) K562 cells were electroporated with the LXSN expression vector harboring the kinase dead, Lys^43 mutated, truncated CaMKII construct (kdCaMKII) as well as with the control (empty) LXSN vector. The electroporated cells were diluted into 96 well plates in liquid suspension culture in the presence of G418 (1 mg/ml). Following eight days of culture the total number of discrete, actively proliferating G418 resistant colonies within individual wells was determined.
Cell lines. All leukemia cell lines are cultured at 37° in RPMI supplemented with 5% heat-inactivated fetal calf serum.

[1] = tested on: Stat3 transcriptional activity in K562 cells; assay: Stat3 response element luciferase reporter in K562 cells; conditions: 48 hours of culture
Experimental: FIG. 13. Stat3 is directly phosphorylated and activated by CaMKIIγ at Ser727. (A, i). Cell lysates from the indicated human leukemia cell lines were subjected to Western blots utilizing the indicated Stat3 antibodies. ii). Cell lysates from the same primary AML samples depicted in FIG. 1B were subjected to Western blots utilizing the indicated Stat3 antibodies. B). The IL-3 dependent TonB210.1 cells were deprived of IL-3 for 24 hours. The cells were then treated with the indicated compounds immediately prior to the addition of doxycycline. After an additional 24 hours cell lysates were harvested and subjected to Western blots with the indicated Stat3 antibodies. C). K562 cells were electroporated with a luciferase reporter driven by a Stat3 response element. The indicated concentrations of KN93 and the Stat 3 inhibitor, cucurbitacin I, were added and relative luciferase activity determined on cell lysates following 48 hours of culture. D, i) K562 cell lysates were immunoprecipitated with control IgG or a Stat3 antibody. […]
Transient transfections and luciferase assays. […] Stat3 transcriptional activity was determined in K562 cells transfected with the pSIE-tk-LUC luciferase reporter which harbors a Stat3 binding site ([…]). […]

Row | Structure (SMILES) | association of corepressors N-CoR and SMRT with the C/EBPε RARE (C/EBPε RARE) | association of CaMKIIγ with the C/EBPε RARE (C/EBPε RARE; observed as early as 1-2 hours) | cell proliferation (THP1 cells) | cell viability or morphologic differentiation (THP1 cells) | Stat3 responsive reporter activity [1]
1 | CC1=C(/C=C/C(C)=C/C=C/C(C)=C/C(=O)O)C(C)(C)CCC1 [ATRA, All-trans retinoic acid] | rapid displacement | dissociation | – | – | –
2 | COc1ccc(S(=O)(=O)N(CCO)c2ccccc2CN(C)C/C=C/c2ccc(Cl)cc2)cc1 [KN-93] | – | – | inhibition | without any significant effect | inhibited
